The results in this text go back to PMC6359284, “Identification, Characterization, and Optimization of Integrin αvβ6-Targeting Peptides from a One-Bead One-Compound (OBOC) Library: Towards the Development of Positron Emission Tomography (PET) Imaging Agents” (Molecules, 2019).

Peptide text beside a SMILES is read from it. * marks the point of attachment. Benzoyl(4-F) = O=C(c1ccc(F)cc1)*

Experiment [1] concerns the target T1, integrin αvβ1 (Homo sapiens, UniProt P05556+P06756).
T1 construct: purchased R&D Systems
Kind of experiment: Competitive binding ELISA, purified integrin αvβ1. Particulars: competitive ELISA vs biotinylated fibronectin, n = 3. On the procedure:
(§1) Competitive binding ELISAs were performed to evaluate the binding affinity of each peptide relative to each integrin’s biotinylated natural ligand (transforming growth factor beta 1 latency-associated peptide or TGFβ1-LAP (G&P Biosciences, Santa Clara, CA, USA) for integrins αvβ6 and αvβ8, fibronectin (Thermo Fisher, Waltham, MA, USA) for integrin αvβ1, and vitronectin (Thermo Fisher) for integrins αvβ3 and αvβ5), as previously described. In brief, anti-αv antibody (P2W7, 5 μg/mL, Abcam) was plated (50 μL/well) at 37 °C for 1 h, washed with PBS (3×), and blocked overnight with blocking buffer (300 μL/well, 5% bovine serum albumin (BSA), 1% Tween 20, in PBS), followed by washing with PBS (3×). […] The plate was incubated at 37 °C for 1 h, then washed with wash buffer (3×). A 1:1000 dilution of ExtrAvidin Horseradish Peroxidase (HRP) was added to each well (50 μL/well), incubated at 37 °C for 1 h, and then washed with wash buffer (3×). The ExtrAvidin HRP was detected with 3,3′,5,5′-tetramethylbenzidine (50 μL/well, Promega, Madison, WI, USA) for 10–15 min at room temperature. The reaction was stopped by adding 1N H2SO4 (50 μL/well) and the absorbance was measured in a Multiscan Ascent plate reader (Thermo Fisher) at 450 nm. Half-maximal inhibitory concentration (IC50) of peptides was determined fitting to sigmoidal dose-response model in GraphPad Prism 5.0 (San Diego, CA, USA).

The target in experiment [2] is T2, integrin αvβ6 (Homo sapiens, UniProt P06756+P18564).
T2 construct: purchased R&D Systems
Kind of experiment: Competitive binding ELISA, purified integrin αvβ6. As for the experimental part:
as §1
For orientation: ELISA stands for enzyme-linked immunosorbent assay.

T1 sequence (P06756 31-992 limits assumed): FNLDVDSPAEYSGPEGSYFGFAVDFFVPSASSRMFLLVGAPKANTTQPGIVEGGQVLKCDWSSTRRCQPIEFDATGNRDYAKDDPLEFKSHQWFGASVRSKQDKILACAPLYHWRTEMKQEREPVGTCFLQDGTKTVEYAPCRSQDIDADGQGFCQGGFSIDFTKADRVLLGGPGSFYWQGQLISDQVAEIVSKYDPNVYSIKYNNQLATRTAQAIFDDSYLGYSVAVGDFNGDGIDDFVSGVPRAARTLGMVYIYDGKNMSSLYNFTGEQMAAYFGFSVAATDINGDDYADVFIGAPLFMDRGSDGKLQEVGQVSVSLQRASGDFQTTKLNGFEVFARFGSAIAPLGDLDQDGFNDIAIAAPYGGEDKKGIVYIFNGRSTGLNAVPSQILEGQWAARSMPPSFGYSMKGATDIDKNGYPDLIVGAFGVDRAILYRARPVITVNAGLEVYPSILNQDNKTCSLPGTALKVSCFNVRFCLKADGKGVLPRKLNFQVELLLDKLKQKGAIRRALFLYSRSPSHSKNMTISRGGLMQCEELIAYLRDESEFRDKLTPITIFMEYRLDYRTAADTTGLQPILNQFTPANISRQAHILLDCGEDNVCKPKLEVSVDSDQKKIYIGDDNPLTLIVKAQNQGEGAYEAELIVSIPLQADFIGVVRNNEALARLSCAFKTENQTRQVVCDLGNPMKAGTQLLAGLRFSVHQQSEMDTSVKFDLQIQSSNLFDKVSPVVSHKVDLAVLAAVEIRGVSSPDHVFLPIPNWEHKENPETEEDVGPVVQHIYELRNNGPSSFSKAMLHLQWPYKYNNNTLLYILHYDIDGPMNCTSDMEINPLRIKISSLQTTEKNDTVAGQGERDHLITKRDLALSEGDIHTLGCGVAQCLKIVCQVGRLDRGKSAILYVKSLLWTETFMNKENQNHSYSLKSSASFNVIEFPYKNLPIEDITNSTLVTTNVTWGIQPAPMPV
T1 sequence (P05556 21-728 limits assumed): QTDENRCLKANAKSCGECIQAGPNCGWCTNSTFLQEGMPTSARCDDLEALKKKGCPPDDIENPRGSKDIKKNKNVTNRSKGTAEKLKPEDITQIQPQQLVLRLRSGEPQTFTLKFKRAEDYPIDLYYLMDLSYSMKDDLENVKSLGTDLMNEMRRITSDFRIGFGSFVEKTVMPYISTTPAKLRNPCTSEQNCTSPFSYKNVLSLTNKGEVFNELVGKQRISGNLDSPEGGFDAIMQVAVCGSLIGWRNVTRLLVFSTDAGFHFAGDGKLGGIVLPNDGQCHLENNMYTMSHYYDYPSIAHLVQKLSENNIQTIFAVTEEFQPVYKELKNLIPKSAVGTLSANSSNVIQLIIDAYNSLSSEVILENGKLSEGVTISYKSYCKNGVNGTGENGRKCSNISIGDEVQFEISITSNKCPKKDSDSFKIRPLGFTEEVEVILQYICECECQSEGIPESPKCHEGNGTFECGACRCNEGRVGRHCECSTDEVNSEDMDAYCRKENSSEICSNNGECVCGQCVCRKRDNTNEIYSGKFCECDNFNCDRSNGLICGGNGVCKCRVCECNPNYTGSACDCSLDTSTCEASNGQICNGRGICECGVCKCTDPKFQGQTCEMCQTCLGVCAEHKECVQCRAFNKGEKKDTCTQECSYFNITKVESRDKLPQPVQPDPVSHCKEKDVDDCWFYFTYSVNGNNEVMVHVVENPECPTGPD

A word on the IC50: it is the midpoint of a concentration-inhibition curve. Consider `CC(C)C[C@H](NC(=O)[C@H](CCC(=O)O)NC(=O)[C@H](CCCNC(=N)N)NC(=O)[C@H](CC(C)C)NC(=O)[C@H](CC(=O)O)NC(=O)CNC(=O)[C@@H](N)CCCNC(=N)N)C(=O)N[C@@H](C)C(=O)N[C@@H](CCCCNC(=O)c1ccc(F)cc1)C(N)=O` [compound 5] (H-RGDLRELAK(Benzoyl(4-F))-NH2; N-terminus assumed), for which the IC50 in experiment [1] turned out to be 1.9 ± 0.3 µM; in experiment [2] (read-out: IC50 (μM) αvβ6, competitive ELISA vs biotinylated TGFβ1-LAP, n = 3), 0.89 ± 0.14 µM. In addition, the “selectivity ratio for integrin αvβ6 compared to αvβ5” value in experiment [2] (from ELISA IC50 values) is given as > 100 :1.
